Reference: ChEMBL document CHEMBL1201862, “PubChem BioAssay data set” (2004)
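Test compounds were applied to cells in 96-well plates for 48 hours at 5 doses. Here, GI50 denotes the concentration required for 50% inhibition of growth.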 Active and inactive are the calls of the source. No stated cut-off is given here; in the data, active = GI50 up to about 1.1 µM and inactive = higher.

Experiments:
Assay in all cases: inhibition of tumour cell growth, NCI panel, 48 h
[1] = system: A498
[2] = system: COLO 205
[3] = system: EKVX
[4] = system: HOP-92
[5] = system: IGROV-1
[6] = system: KM12
[7] = system: M14
[8] = system: MOLT-4
[9] = system: Malme-3M
[10] = system: NCI-H226
[11] = system: OVCAR-8
[12] = system: PC-3
[13] = system: SF-268
[14] = system: SF-295
[15] = system: SF-539
[16] = system: SK-MEL-28
[17] = system: SK-MEL-5
[18] = system: SK-OV-3
[19] = system: HL-60

Row | SMILES | GI50 [1] | GI50 [2] | GI50 [3] | GI50 [4] | GI50 [5] | GI50 [6] | GI50 [7] | GI50 [8] | GI50 [9] | GI50 [10] | GI50 [11] | GI50 [12] | GI50 [13] | GI50 [14] | GI50 [15] | GI50 [16] | GI50 [17] | GI50 [18] | GI50 [19]
1 | O=C1Nc2ccccc2/C1=N/NC(=S)N1CCCCC1 | 0.356 µM (active) | 0.774 µM (active) | 1.31 µM (inactive) | 2.25 µM (inactive) | 0.138 µM (active) | 0.0841 µM (active) | 0.29 µM (active) | 0.354 µM (active) | 0.234 µM (active) | 1.37 µM (inactive) | 0.317 µM (active) | 0.337 µM (active) | 0.493 µM (active) | 0.256 µM (active) | 0.082 µM (active) | 2.17 µM (inactive) | 0.0667 µM (active) | 2.01 µM (inactive) | 
2 | C[C@]12CCc3nonc3C1CC[C@@H]1C2CC[C@@]2(C)C1CC[C@@H]2O (stereo partly specified) | > 100 µM (inactive) | > 100 µM (inactive) | > 100 µM (inactive) | 94.4 µM (inactive) | > 100 µM (inactive) | > 100 µM (inactive) | > 100 µM (inactive) | > 100 µM (inactive) | > 100 µM (inactive) | > 100 µM (inactive) | > 100 µM (inactive) |  | > 100 µM (inactive) | > 100 µM (inactive) | > 100 µM (inactive) | > 100 µM (inactive) | > 100 µM (inactive) | > 100 µM (inactive) | > 100 µM (inactive)
3 | NC(=O)NC(=O)c1cnccn1 | > 100 µM (inactive) | > 10 µM (inactive) | > 100 µM (inactive) | > 100 µM (inactive) |  | > 100 µM (inactive) | > 100 µM (inactive) | > 100 µM (inactive) | > 100 µM (inactive) | 54.1 µM (inactive) |  | > 100 µM (inactive) | > 100 µM (inactive) | > 100 µM (inactive) | > 100 µM (inactive) | > 100 µM (inactive) | > 10 µM (inactive) | > 100 µM (inactive) | 
4 | CC(=O)OC1C(=O)C(O)C(C)OC1O[C@@H]1C[C@@]2(C)[C@@H]3CC=C4[C@@H](C[C@H](O)C(=O)C4(C)C)[C@]3(C)C(=O)C[C@]2(C)[C@H]1[C@@](C)(O)C(=O)/C=C/C(C)(C)O (stereo partly specified) | 0.577 µM (active) | 0.885 µM (active) | 3.86 µM (inactive) | 1.28 µM (inactive) | 2.6 µM (inactive) | > 7.53 µM (inactive) | 0.918 µM (active) | 3.51 µM (inactive) | 1.04 µM (active) | 0.693 µM (active) | 6.28 µM (inactive) |  | 0.843 µM (active) | 3.03 µM (inactive) | 0.675 µM (active) | 0.447 µM (active) | 1.47 µM (inactive) | 3.06 µM (inactive) | 1.91 µM (inactive)
5 | CN(/N=C/c1ccnc2ccccc12)c1c([N+](=O)[O-])cc([N+](=O)[O-])cc1[N+](=O)[O-] | 48.8 µM (inactive) | > 100 µM (inactive) | 47.3 µM (inactive) | 28.1 µM (inactive) | > 100 µM (inactive) | > 100 µM (inactive) | 43.3 µM (inactive) | 28.1 µM (inactive) | 31.5 µM (inactive) | 71.4 µM (inactive) | 98.2 µM (inactive) |  | 61.2 µM (inactive) | 76.9 µM (inactive) | > 100 µM (inactive) | 60.5 µM (inactive) | 34.2 µM (inactive) | > 100 µM (inactive) | 22.4 µM (inactive)
6 | C=C1C(=O)OC2/C=C(\C)C(O)/C=C\C(C)(O)CC(OC(=O)/C(C)=C/C)C12 (stereo unspecified) | > 100 µM (inactive) | 15.3 µM (inactive) | 30.1 µM (inactive) | 29.2 µM (inactive) | > 100 µM (inactive) | 40.6 µM (inactive) | 17.3 µM (inactive) | 4.29 µM (inactive) | 21.4 µM (inactive) | > 100 µM (inactive) | 22.1 µM (inactive) |  | 76.9 µM (inactive) | > 100 µM (inactive) | 14.1 µM (inactive) | 18.3 µM (inactive) | 51.3 µM (inactive) | > 100 µM (inactive) | 7.91 µM (inactive)
7 | COc1ccccc1OCc1nnc(SCC(=O)O)n1-c1ccccc1 | > 100 µM (inactive) | > 100 µM (inactive) | > 100 µM (inactive) | > 100 µM (inactive) | > 100 µM (inactive) | > 100 µM (inactive) | > 100 µM (inactive) | > 100 µM (inactive) | > 100 µM (inactive) | > 100 µM (inactive) | > 100 µM (inactive) |  | > 100 µM (inactive) | > 100 µM (inactive) | > 100 µM (inactive) | > 100 µM (inactive) | > 100 µM (inactive) | > 100 µM (inactive) | > 100 µM (inactive)
8 | O=C1c2ccc3c4ccccc4n(Cc4ccccc4)c3c2C(=O)N1c1ccccc1 | 25.1 µM (inactive) | 3.52 µM (inactive) | 17.5 µM (inactive) | 11.4 µM (inactive) | 17.8 µM (inactive) | 15.5 µM (inactive) | 14.8 µM (inactive) | 3.05 µM (inactive) | 16.2 µM (inactive) | 12.8 µM (inactive) | 15.6 µM (inactive) |  | 19.9 µM (inactive) | 14.7 µM (inactive) | 17.1 µM (inactive) | 17 µM (inactive) | 16.1 µM (inactive) | 24.9 µM (inactive) | 4.51 µM (inactive)
9 | O=C(O)CCC1C(=O)C2CCN1CC2 (stereo unspecified) | 97.7 µM (inactive) | > 100 µM (inactive) | > 100 µM (inactive) |  | > 100 µM (inactive) | > 100 µM (inactive) | > 100 µM (inactive) | > 100 µM (inactive) | > 100 µM (inactive) | > 100 µM (inactive) | > 100 µM (inactive) | > 100 µM (inactive) | > 100 µM (inactive) | > 100 µM (inactive) | > 100 µM (inactive) | > 100 µM (inactive) | > 100 µM (inactive) | > 100 µM (inactive) | > 100 µM (inactive)
10 | CC(C)c1cccc(C(C)C)c1NC1=CC(=O)C(=O)c2ccccc21 | > 100 µM (inactive) | > 100 µM (inactive) | > 100 µM (inactive) | > 100 µM (inactive) | > 100 µM (inactive) | > 100 µM (inactive) | > 100 µM (inactive) | 58.5 µM (inactive) | > 100 µM (inactive) | > 100 µM (inactive) | > 100 µM (inactive) |  | > 100 µM (inactive) | > 100 µM (inactive) | > 100 µM (inactive) | > 100 µM (inactive) | > 100 µM (inactive) | > 100 µM (inactive) | 77.8 µM (inactive)
11 | O=C1CC2c3ccccc3CCC2c2ccccc21 (stereo unspecified) | 1 µM (active) | 2.93 µM (inactive) | 2.58 µM (inactive) |  | 26.3 µM (inactive) | 9.35 µM (inactive) | 15.7 µM (inactive) | 32.3 µM (inactive) |  | 12.1 µM (inactive) | 21.2 µM (inactive) | 26.2 µM (inactive) | 27.5 µM (inactive) | 17.6 µM (inactive) | 16.3 µM (inactive) | 36.1 µM (inactive) | 11.6 µM (inactive) | 51.2 µM (inactive) | 21.6 µM (inactive)
12 | COc1cccc(C2=NC(C(C)C)CO2)c1OC (stereo unspecified) | > 100 µM (inactive) | > 100 µM (inactive) | > 100 µM (inactive) | > 100 µM (inactive) | > 100 µM (inactive) | > 100 µM (inactive) | > 100 µM (inactive) | > 100 µM (inactive) | > 100 µM (inactive) | > 100 µM (inactive) | > 100 µM (inactive) |  | > 100 µM (inactive) | > 100 µM (inactive) | > 100 µM (inactive) | > 100 µM (inactive) | > 100 µM (inactive) | > 100 µM (inactive) | > 100 µM (inactive)
13 | COC(=O)[C@H]1C2CC[C@@H]3C45C[C@@H](c6ccoc6)O[C@@H]4O[C@@H](O2)C31CCC5C (stereo partly specified) | > 100 µM (inactive) | > 100 µM (inactive) | 92.3 µM (inactive) | 44.6 µM (inactive) | > 100 µM (inactive) | > 100 µM (inactive) | > 100 µM (inactive) | 69.7 µM (inactive) | > 100 µM (inactive) | 76.7 µM (inactive) | > 100 µM (inactive) |  | > 100 µM (inactive) | 97.5 µM (inactive) | > 100 µM (inactive) |  | > 100 µM (inactive) | > 100 µM (inactive) | > 100 µM (inactive)
14 | O=C(Nc1ccc(C(F)(F)F)cc1[N+](=O)[O-])C(=O)C1NC(=S)NC1=O (stereo unspecified) | 53 µM (inactive) | 13.5 µM (inactive) | 4.86 µM (inactive) | 43.7 µM (inactive) | > 100 µM (inactive) | > 100 µM (inactive) | > 100 µM (inactive) | > 100 µM (inactive) | > 100 µM (inactive) | 11 µM (inactive) | > 100 µM (inactive) |  | > 100 µM (inactive) | > 100 µM (inactive) | > 100 µM (inactive) | > 100 µM (inactive) | > 100 µM (inactive) | > 100 µM (inactive) | > 100 µM (inactive)
15 | C[N+](C)(C)CC(=O)N/N=C(\C(=O)NC1=C(Cl)C(=O)c2ccccc2C1=O)C(C#N)c1csc(-c2ccc([N+](=O)[O-])cc2)n1 (stereo unspecified) | > 100 µM (inactive) | > 100 µM (inactive) | 48.2 µM (inactive) | > 100 µM (inactive) | > 100 µM (inactive) | > 100 µM (inactive) | > 100 µM (inactive) | > 100 µM (inactive) | > 100 µM (inactive) | > 100 µM (inactive) | > 100 µM (inactive) |  | > 100 µM (inactive) | > 100 µM (inactive) | > 100 µM (inactive) | > 100 µM (inactive) | > 100 µM (inactive) | > 100 µM (inactive) | > 100 µM (inactive)
